Assay results: publication PMC4122973 (Bioscience Reports, 2014)
Entries after “also recorded” stand apart in the source; their conditions may differ.

Columns and labels:
TRPM8 FK 1045,1046 AG [1] = biological target: T1, TRPM8 FK 1045,1046 AG (Homo sapiens, UniProt Q7Z2W7, F1045A/K1046G); assay: Fluo-3 intracellular Ca2+ assay, SH-SY5Y cells expressing TRPM8 FK 1045,1046 AG mutant; format: cell-based
T1 construct: expressed in transfected cells
Text: (§1) Human TRPM8 cDNA was cloned by RT–PCR from human prostate cancer cell line LNCaP (from the American Type Culture Collection) by ligation into pcDNA3.1neo and its DNA sequence validated (L.R. Sadofsky, unpublished work). Normal TRPM8 cDNA was mutated using synthetic oligonucleotides (from Eurofins, MWG, Operon) to amplify full-length plasmid DNA with Pfu DNA polymerase (Thermo Scientific). Amplified DNA was used to transform competent Esherichia coli (Agilent) and individual plasmid clones were screened by diagnostic restriction enzyme digestion-agarose gel electrophoresis. […]
(§2) Cell suspension for assay was added to 1.9 ml isotonic assay buffer (no BSA) in a 10×10×45 mm polystyrene cuvette (Sarstedt Ltd) containing a small magnetic flea for continuous stirring (~50 rpm), to bring the final volume to 2 ml, and placed within the photomultipler light box. […] Real-time fluorescence intensity measurements were collected and data were exported to Microsoft Excel for analysis. […]
(§3) Data from the measurement of Ca^2+ transients (each treatment including a 2 μM A23187 Ca^2+ ionophore control) were used to generate fluorescence intensity traces in Microsoft Excel. RFU (relative fluorescence unit) values for baseline and agonist-induced peak Ca^2+ fluo-3-fluorescence were determined by the manual analysis of graphs. […]

SH-SY5Y TRPA1 R797T = biological target: T2, SH-SY5Y TRPA1 R797T (Homo sapiens, UniProt O75762, R797T); assay: Fluo-3 intracellular Ca2+ assay, TRPA1-transfected SH-SY5Y cells that lost response to agonist; format: cell-based; details: pre-treatment followed by AITC
T2 construct: expressed in transfected cells
Experimental: (§4) When cells reached approximately 80% confluence they were harvested for assays measuring Ca^2+ transients in response to TRP channel activation. […] A sample was taken to calculate cell yield using a hemocytometer and the cells were pelleted by centrifugation at 1500 rpm for 4 min.
Cell suspension for assay was added to 1.9 ml isotonic assay buffer (no BSA) in a 10×10×45 mm polystyrene cuvette (Sarstedt Ltd) containing a small magnetic flea for continuous stirring (~50 rpm), to bring the final volume to 2 ml, and placed within the photomultipler light box. […] Slit apertures were adjusted to enable maximum sensitivity while maintaining low noise. TRP channel agonist was administered by injection into the cuvette using a 1–20 μl pipette fitted with a narrow, extended-reach disposable tip. […] Real-time fluorescence intensity measurements were collected and data were exported to Microsoft Excel for analysis. […]
as §3, with “graphs. Agonist dose-dependent changes in peak RFU were expressed as ΔRFU relative to baseline and relative to maximum RFU elicited by A23187.” for “graphs.”

human TRPM8 = biological target: T3, human TRPM8 (Homo sapiens, UniProt Q7Z2W7); assay: Fluo-3 intracellular Ca2+ assay, HEK-293 cells expressing normal human TRPM8; format: cell-based
T3 construct: expressed in transfected cells
Experimental: as §4
Cell suspension for assay was added to 1.9 ml isotonic assay buffer (no BSA) in a 10×10×45 mm polystyrene cuvette (Sarstedt Ltd) containing a small magnetic flea for continuous stirring (~50 rpm), to bring the final volume to 2 ml, and placed within the photomultipler light box. […] Slit apertures were adjusted to enable maximum sensitivity while maintaining low noise. TRP channel agonist was administered by injection into the cuvette using a 1–20 μl pipette fitted with a narrow, extended-reach disposable tip. Antagonists were pre-added to cuvettes where appropriate. Real-time fluorescence intensity measurements were collected and data were exported to Microsoft Excel for analysis. Experimental treatments were performed in triplicate on three separate occasions to facilitate statistical analyses of reproducibility.
Data from the measurement of Ca^2+ transients (each treatment including a 2 μM A23187 Ca^2+ ionophore control) were used to generate fluorescence intensity traces in Microsoft Excel. RFU (relative fluorescence unit) values for baseline and agonist-induced peak Ca^2+ fluo-3-fluorescence were determined by the manual analysis of graphs. Agonist dose-dependent changes in peak RFU were expressed as ΔRFU relative to baseline and relative to maximum RFU elicited by A23187. […] This enabled estimation of excitatory concentration EC50 for agonists and inhibitory concentration IC50 values where pre-incubation with antagonist was employed. Comparisons between data generated in triplicate within individual experiments and between experiments performed on […] were analysed using Student's t test and one-way ANOVA with post-hoc analysis of group means using Tukey's multiple comparison test.

TRPM8 SV 762,763 EL = biological target: T4, TRPM8 SV 762,763 EL (Homo sapiens, UniProt Q7Z2W7, S762E/V763L); assay: Fluo-3 intracellular Ca2+ assay, HEK-293 cells expressing TRPM8 SV 762,763 EL mutant; format: cell-based; details: HEK293 TRPM8 SV / EL; mean±S.E.M., n=3; read-out: EC50 for WS 12 (peak intracellular Ca2+ fluorescence)
T4 construct: expressed in transfected cells
Text: as §1, §2, §3

TRPM8 FK 1045,1046 AG [2] = biological target: T1, TRPM8 FK 1045,1046 AG; assay: Fluo-3 intracellular Ca2+ assay, HEK-293 cells expressing TRPM8 FK 1045,1046 AG mutant; format: cell-based; details: HEK293 TRPM8 FK / AG; mean±S.E.M., n=3; read-out: EC50 for WS 12 (peak intracellular Ca2+ fluorescence)
Text: as §1, §2, §3

[3] = tested on: HEK-293 cells transfected with empty pcDNA3.1neo vector; assay: Fluo-3 intracellular Ca2+ assay, control HEK-293 cells with empty pcDNA3.1neo vector; format: cell-based, human; details: HEK-293 empty pcDNA3.1neo vector; 40 nM WS 12 (Figure S1a)
Experimental: Following a brief wash with PBS, cells were detached from each T75 flask by soaking with 2 ml Hepes-buffered saline EDTA (10 mM Hepes pH7.4, 155 mM NaCl, 1.7 mM EDTA) for several minutes and were harvested by addition of 10 ml PBS with gentle agitation and transfer to a 25 ml universal. A sample was taken to calculate cell yield using a hemocytometer and the cells were pelleted by centrifugation at 1500 rpm for 4 min. The pellet was resuspended in isotonic buffer (145 mM NaCl, 5 mM KCl, 1 mM MgCl2, 1 mM CaCl2, 10 mM Hepes pH7.4, 10 mM glucose, a variable content of probenecid (0, 0.13, 0.26, 0.52, 1.0, 2.0 or 2.5 mM) or 0.18 mM sulfinpyrazone, with optional 10 mg/ml BSA (all from Sigma-Aldrich) at a density of 5×10^6/ml and mixed with 2.5 or 5.0 μl Fluo-3AM (Invitrogen) from a 2.5 μg/μl stock solution prepared in (DMSO, Sigma-Aldrich). Cells were incubated in a 25 ml universal in the dark at room temperature with gentle rotary mixing (50 rpm) for 30–45 min and then washed by addition of 18 ml PBS followed by centrifugation and resuspension in isotonic buffer without BSA at 5×10^6 cells/ml. […] Real-time fluorescence intensity measurements were collected and data were exported to Microsoft Excel for analysis. […]

TRPA1 797R = biological target: T5, TRPA1 797R (Homo sapiens, UniProt O75762); assay: Fluo-3 intracellular Ca2+ assay, HEK-293 cells expressing TRPA1 797R (reference sequence); format: cell-based
T5 construct: expressed in transfected cells
Experimental: When cells reached approximately 80% confluence they were harvested for assays measuring Ca^2+ transients in response to TRP channel activation. Following a brief wash with PBS, cells were detached from each T75 flask by soaking with 2 ml Hepes-buffered saline EDTA (10 mM Hepes pH7.4, 155 mM NaCl, 1.7 mM EDTA) for several minutes and were harvested by addition of 10 ml PBS with gentle agitation and transfer to a 25 ml universal. A sample was taken to calculate cell yield using a hemocytometer and the cells were pelleted by centrifugation at 1500 rpm for 4 min. […]

TRPA1 804N = biological target: T6, TRPA1 804N (Homo sapiens, UniProt O75762, S804N); assay: Fluo-3 intracellular Ca2+ assay, HEK-293 cells expressing TRPA1 804N SNP variant; format: cell-based; details: HEK-293 TRPA1 804N; mean ±standard deviation, n=4; read-out: EC50 cinnamaldehyde
T6 construct: expressed in transfected cells
Text: (§5) Human TRPA1 cDNA in pcDNA3.1neo [41] was mutated to create SNP variants using quick change PCR with appropriate primer pairs: R797T forward 5′ […] TT and reverse 5′ […], S804N forward 5′ […] ATGTTC and reverse 5′ […]. Likewise, the experimental mutant S873E, in ICL-2 (intracellular loop-2), was created using PCR primers: forward 5′ […] […] and reverse 5′ […]. For C-terminal extension, TRPA1cDNA was modified by excision of the 3′ section of the coding region (BamHI–XbaI digestion) and replacement with a BamHI–XbaI digested PCR amplified section containing codons for ten histidine residues (His)10 prior to the translation stop codon using T4 DNA ligase (Promega). PCR primers were: sense 5′ TTTAC […] CATT 3′ and antisense 5′ […] […] TGCCTT 3′. […]
(§6) Aliquots of cell suspension (usually 100 μl) were used for measurement of intracellular Ca^2+ transients using a PTI (Photon Technology International) 814 photomultiplier detection system interfaced with a desktop computer (PTI Inc.). […] The cuvette was illuminated using light at a wavelength of 506 nm (slit width 8 nm) and monitored using fluorescence detection at 526 nm (slit width 8 nm) coupled to FeliX GX software (PTI Inc). […] Real-time fluorescence intensity measurements were collected and data were exported to Microsoft Excel for analysis. […]

TRPA1 797T = biological target: T7, TRPA1 797T (Homo sapiens, UniProt O75762, R797T); assay: Fluo-3 intracellular Ca2+ assay, HEK-293 cells expressing TRPA1 797T SNP variant; format: cell-based; details: HEK-293 TRPA1 797T; mean ±standard deviation, n=4; read-out: EC50 cinnamaldehyde
T7 construct: expressed in transfected cells
Text: as §5, §6

TRPA1-(His)10 = biological target: T8, TRPA1-(His)10 (Homo sapiens, UniProt O75762); assay: Fluo-3 intracellular Ca2+ assay, HEK-293 cells expressing TRPA1-(His)10; format: cell-based; details: HEK-293 TRPA1-(His)10; mean ±standard deviation, n=4; read-out: EC50 cinnamaldehyde
T8 construct: expressed in transfected cells
Text: as §5, §6

T5 sequence (O75762 whole entry): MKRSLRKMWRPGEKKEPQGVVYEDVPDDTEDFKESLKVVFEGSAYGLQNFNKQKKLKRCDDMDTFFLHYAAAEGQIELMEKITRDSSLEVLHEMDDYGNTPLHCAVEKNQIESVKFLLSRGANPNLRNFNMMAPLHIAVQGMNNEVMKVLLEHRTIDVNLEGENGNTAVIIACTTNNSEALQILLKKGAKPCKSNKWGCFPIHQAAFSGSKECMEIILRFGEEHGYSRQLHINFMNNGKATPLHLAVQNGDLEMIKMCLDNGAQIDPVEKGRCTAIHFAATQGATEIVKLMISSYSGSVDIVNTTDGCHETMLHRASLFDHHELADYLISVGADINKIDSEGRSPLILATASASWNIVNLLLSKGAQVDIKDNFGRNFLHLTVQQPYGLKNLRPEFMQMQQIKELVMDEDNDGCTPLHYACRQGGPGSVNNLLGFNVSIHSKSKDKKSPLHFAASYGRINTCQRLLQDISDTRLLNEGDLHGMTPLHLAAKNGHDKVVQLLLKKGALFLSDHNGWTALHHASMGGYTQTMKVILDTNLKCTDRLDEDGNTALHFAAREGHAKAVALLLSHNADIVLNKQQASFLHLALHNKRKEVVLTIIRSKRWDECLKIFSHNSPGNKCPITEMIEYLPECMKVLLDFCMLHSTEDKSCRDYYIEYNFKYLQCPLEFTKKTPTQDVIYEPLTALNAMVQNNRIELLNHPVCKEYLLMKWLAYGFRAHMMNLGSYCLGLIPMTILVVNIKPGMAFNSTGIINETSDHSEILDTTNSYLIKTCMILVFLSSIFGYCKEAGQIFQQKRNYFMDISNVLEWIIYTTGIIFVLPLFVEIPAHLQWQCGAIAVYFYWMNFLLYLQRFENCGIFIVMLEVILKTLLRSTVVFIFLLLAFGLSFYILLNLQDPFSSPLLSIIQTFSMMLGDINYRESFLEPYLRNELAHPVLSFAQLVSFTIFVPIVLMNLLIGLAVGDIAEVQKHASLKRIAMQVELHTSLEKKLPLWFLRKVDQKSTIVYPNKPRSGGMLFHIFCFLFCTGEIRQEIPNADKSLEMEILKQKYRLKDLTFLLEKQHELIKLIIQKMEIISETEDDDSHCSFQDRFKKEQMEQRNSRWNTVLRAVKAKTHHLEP
T1 sequence (Q7Z2W7 whole entry F1045A/K1046G): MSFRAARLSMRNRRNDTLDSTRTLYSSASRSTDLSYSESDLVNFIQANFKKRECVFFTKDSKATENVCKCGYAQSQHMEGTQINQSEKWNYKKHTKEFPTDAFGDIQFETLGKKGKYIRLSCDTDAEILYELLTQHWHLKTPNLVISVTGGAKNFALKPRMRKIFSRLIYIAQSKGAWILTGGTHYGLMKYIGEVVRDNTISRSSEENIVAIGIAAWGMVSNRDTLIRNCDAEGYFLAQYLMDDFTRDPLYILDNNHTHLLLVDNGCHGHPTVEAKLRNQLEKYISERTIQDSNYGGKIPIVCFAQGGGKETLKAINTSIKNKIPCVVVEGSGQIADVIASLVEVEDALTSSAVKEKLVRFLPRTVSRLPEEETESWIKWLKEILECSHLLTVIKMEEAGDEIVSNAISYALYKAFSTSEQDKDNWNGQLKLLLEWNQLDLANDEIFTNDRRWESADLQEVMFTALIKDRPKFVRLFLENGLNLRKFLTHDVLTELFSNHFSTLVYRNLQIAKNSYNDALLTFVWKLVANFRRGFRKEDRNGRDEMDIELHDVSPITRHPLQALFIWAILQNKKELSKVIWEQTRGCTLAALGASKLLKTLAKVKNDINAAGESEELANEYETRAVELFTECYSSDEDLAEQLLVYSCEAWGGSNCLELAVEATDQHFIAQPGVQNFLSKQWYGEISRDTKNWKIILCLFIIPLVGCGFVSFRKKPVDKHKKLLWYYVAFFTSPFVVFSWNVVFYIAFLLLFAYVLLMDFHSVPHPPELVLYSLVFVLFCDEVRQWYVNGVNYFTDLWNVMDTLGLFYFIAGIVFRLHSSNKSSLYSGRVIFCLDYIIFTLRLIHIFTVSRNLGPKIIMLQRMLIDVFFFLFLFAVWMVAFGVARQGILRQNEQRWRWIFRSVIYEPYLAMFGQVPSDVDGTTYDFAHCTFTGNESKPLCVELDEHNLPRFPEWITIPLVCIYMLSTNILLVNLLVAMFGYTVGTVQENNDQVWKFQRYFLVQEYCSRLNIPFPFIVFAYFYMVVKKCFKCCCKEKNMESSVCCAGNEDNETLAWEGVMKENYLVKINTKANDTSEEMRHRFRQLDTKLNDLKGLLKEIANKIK
T3 sequence (Q7Z2W7 whole entry): as the sequence (Q7Z2W7 whole entry F1045A/K1046G) above, with A1045F, G1046K counted along it
T6 sequence (O75762 whole entry S804N): as the sequence (O75762 whole entry) above, with S804N counted along it
T2 sequence (O75762 whole entry R797T): as the sequence (O75762 whole entry) above, with R797T counted along it
T7 sequence (O75762 whole entry R797T): as the sequence (O75762 whole entry) above, with R797T counted along it
T8 sequence (O75762 with tags, fused parts or gaps limits assumed): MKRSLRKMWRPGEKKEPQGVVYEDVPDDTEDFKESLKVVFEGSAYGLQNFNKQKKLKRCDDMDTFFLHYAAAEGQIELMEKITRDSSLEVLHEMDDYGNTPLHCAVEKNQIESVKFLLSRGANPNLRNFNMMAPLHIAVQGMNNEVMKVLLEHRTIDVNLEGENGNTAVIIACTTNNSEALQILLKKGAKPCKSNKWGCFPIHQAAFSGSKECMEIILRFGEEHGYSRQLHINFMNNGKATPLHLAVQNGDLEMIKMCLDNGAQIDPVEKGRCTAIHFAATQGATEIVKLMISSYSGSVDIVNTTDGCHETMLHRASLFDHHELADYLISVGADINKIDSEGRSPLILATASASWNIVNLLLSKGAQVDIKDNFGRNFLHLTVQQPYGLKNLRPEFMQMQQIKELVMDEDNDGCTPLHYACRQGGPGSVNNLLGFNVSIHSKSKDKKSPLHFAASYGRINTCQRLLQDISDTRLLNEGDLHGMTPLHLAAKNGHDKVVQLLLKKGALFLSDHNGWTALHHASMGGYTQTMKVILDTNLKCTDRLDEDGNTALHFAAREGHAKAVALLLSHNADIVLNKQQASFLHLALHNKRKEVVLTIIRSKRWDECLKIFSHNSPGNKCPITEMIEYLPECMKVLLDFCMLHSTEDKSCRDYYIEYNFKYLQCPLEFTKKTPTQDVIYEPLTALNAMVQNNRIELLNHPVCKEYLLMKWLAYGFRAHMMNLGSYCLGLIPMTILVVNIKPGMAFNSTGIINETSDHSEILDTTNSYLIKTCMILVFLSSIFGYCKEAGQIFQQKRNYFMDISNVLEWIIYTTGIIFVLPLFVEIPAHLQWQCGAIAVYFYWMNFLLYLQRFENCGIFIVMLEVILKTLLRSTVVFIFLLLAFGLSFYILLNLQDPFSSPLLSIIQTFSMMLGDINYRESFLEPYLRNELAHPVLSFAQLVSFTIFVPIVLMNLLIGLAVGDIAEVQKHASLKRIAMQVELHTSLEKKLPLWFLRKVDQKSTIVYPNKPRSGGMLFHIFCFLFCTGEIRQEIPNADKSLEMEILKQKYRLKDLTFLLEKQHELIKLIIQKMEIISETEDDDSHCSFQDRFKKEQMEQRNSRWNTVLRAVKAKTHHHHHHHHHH
T4 sequence (Q7Z2W7 whole entry S762E/V763L): as the sequence (Q7Z2W7 whole entry F1045A/K1046G) above, with S762E, V763L, A1045F, G1046K counted along it

With `Nc1ncnc2c1cnn2-c1ccccc1` [PP3, 4-amino-7-phenylpyrazol[3,4-d]pyrimidine] the “Effect of pre-treatment on responses to TRPM8 agonist” value (TRPM8 FK 1045,1046 AG [1]; 150 nM WS 12) was “did not affect responses; also recorded: did not inhibit responses” and the “Recovery of responses to TRPA1 agonists after pre-treatment” value (SH-SY5Y TRPA1 R797T) was “did not facilitate recovery”.
Compound `COc1ccc(NC(=O)[C@@H]2CC(C)CC[C@H]2C(C)C)cc1` (stereo partly drawn) [WS 12, (1R,2S)-N-(4-methoxyphenyl)-5-methyl-2-(1-methylethyl)cyclohexanecarbo-xamide] has an EC50 (human TRPM8; HEK293 TRPM8, mean±S.E.M., n=3, read-out: EC50 for WS 12 (peak intracellular Ca2+ fluorescence)) of 0.128 ± 0.022 µM, an EC50 (TRPM8 SV 762,763 EL) of 0.178 ± 0.022 µM and an EC50 (TRPM8 FK 1045,1046 AG [2]) of 0.194 ± 0.05 µM. The EC50 (TRPM8 FK 1045,1046 AG [1]; mean±S.E.M., n=3, read-out: EC50 for WS 12 (peak intracellular Ca2+ fluorescence)) was 0.187 ± 0.037 µM and the “Intracellular Ca2+ transients in empty-vector control cells” value [3] was “did not exhibit intracellular Ca^2+ transients”.
`O=C/C=C/c1ccccc1` [cinnamaldehyde] gave an EC50 (TRPA1 797R) of 15 ± 5 µM, an EC50 (TRPA1 804N) of 11 ± 3 µM and an EC50 (TRPA1 797T) of 3 ± 1 µM. The EC50 (TRPA1-(His)10) was 8 ± 2 µM.
In the case of `CC1CCC(C(C)C)C(O)C1` (stereo not drawn) [menthol], the “Intracellular Ca2+ transients in empty-vector control cells” value [3] is reported as “did not exhibit intracellular Ca^2+ transients”.
For `CCCN(CCC)S(=O)(=O)c1ccc(C(=O)O)cc1` [probenecid], the “Effect of low probenecid concentration on Ca2+ assay results” value (human TRPM8; 0.13 mM probenecid, relative to data derived using sulfinpyrazone, TRPM8 and TRPA1 assays) was “did not affect”, the “Effect of probenecid on TRPM8-induced intracellular Ca2+ response” value (human TRPM8; probenecid above 1 mM, up to 2.5 mM, 40 nM WS 12) was “inhibited; also recorded: suppressed the response to WS 12” and the “Effect of probenecid on TRPA1-induced intracellular Ca2+ response” value (TRPA1 797R; probenecid above 1 mM, up to 2.5 mM, 60 μM cinnamaldehyde) was “suppressed; also recorded: inhibited”.
